The record followed here is ChEMBL document CHEMBL1131869, “Chlorophenylmethyl benzothiadiazine dioxides derivatives: potent human cytomegalovirus inhibitors” (Bioorg Med Chem Lett, 1999).

The IC50 is the concentration needed to halve the response being measured. Lower therefore signals greater potency. The term CC50 denotes the concentration at which the toxic effect on the cells reaches its halfway point. A low value points to harm at low concentration.

Where only a bound is given, the exact number is not on record here.

Test [1] has as its system Human betaherpesvirus 5. The test is described as follows: Antiviral activity against Human cytomegalovirus (AD169) strain(HCMV). Format: functional, organism-based.
Test [2] concerns Human betaherpesvirus 5. The test is described as follows: Cytotoxicity against Human cytomegalovirus (AD169) strain(HCMV). The test is classed as functional.
In test [3] the test system is Human betaherpesvirus 5. The test is described as follows: Antiviral activity against clinical isolates of human origin CMV-strainA. Format: functional, organism-based.
Test [4] deals with Human betaherpesvirus 5. The test is described as follows: Antiviral activity against clinical isolates of human origin CMV-strainC. The test is classed as functional, organism-based.
For test [5], the system named is Human betaherpesvirus 5. The test can be described thus: Antiviral activity against clinical isolates of human origin CMV-strain B. The test is classed as functional, organism-based.

Turning to `O=S1(=O)N=C(OCc2ccccc2)c2ccccc2N1Cc1ccccc1`, the IC50 in the test on Human betaherpesvirus 5 [1] came out at 7.9 µM. Also, in the test with Human betaherpesvirus 5 [2], the 50% cytotoxic concentration (CC50) is > 66 µM.
`O=C1c2ccccc2N(Cc2cccc(Cl)c2)S(=O)(=O)N1Cc1ccccc1` displayed an IC50 in the test on Human betaherpesvirus 5 [1] of 3.6 µM. In addition, the CC50 with Human betaherpesvirus 5 [2] is > 60 µM.
On the same counts, the results for `O=C1c2ccccc2N(Cc2ccc(Cl)cc2)S(=O)(=O)N1COCc1ccccc1` are 6.7 µM and > 56 µM.
The like results for `O=C1c2ccccc2N(Cc2ccccc2Cl)S(=O)(=O)N1Cc1ccccc1` were, in that order, 4.8 µM and > 60 µM.
The like results for `O=C1c2ccccc2N(COCc2ccccc2)S(=O)(=O)N1COCc1ccccc1` were, in that order, 34 µM and > 57 µM.
Take `O=C1c2ccccc2N(Cc2ccccc2Cl)S(=O)(=O)N1COCc1ccccc1`: half-maximal inhibition in the test with Human betaherpesvirus 5 [1] (IC50) was put at 18 µM. Further, the CC50 with Human betaherpesvirus 5 [2] is > 56 µM.
In the test on Human betaherpesvirus 5 [1], `O=C1c2ccccc2N(Cc2ccc(Cl)cc2)S(=O)(=O)N1Cc1ccc(Cl)cc1` showed an IC50 of 3.6 µM. Besides, in the test on Human betaherpesvirus 5 [2], the CC50 was > 60 µM.
The like results for `O=C1c2ccccc2N(Cc2ccccc2)S(=O)(=O)N1Cc1ccccc1` were, in that order, 5.2 µM and > 66 µM.
In the test on Human betaherpesvirus 5 [1], `O=C1c2ccccc2N(Cc2ccccc2)S(=O)(=O)N1Cc1ccc(Cl)cc1` had an IC50 of 6 µM. Also, the cytotoxic concentration (CC50) in the test with Human betaherpesvirus 5 [2] was > 60 µM.
In the case of `O=C1c2ccccc2N(Cc2ccc(Cl)cc2)S(=O)(=O)N1Cc1ccccc1`, the IC50 in the test with Human betaherpesvirus 5 [1] worked out at 3.6 µM; with Human betaherpesvirus 5 [3], 2.4 µM; in the test with Human betaherpesvirus 5 [4], 2.4 µM; in the test with Human betaherpesvirus 5 [5], 1.2 µM. For the same compound, in the test on Human betaherpesvirus 5 [2], the CC50 was > 60 µM.
In turn, `O=C1c2ccccc2N(Cc2ccccc2Cl)S(=O)(=O)N1Cc1ccccc1Cl` returned an IC50 with Human betaherpesvirus 5 [1] of 3.6 µM. Further, the CC50 with Human betaherpesvirus 5 [2] was > 60 µM.
The like results for `O=C1c2ccccc2N(Cc2ccccc2)S(=O)(=O)N1Cc1ccccc1Cl` were, in that order, 12.1 µM and > 60 µM.
As to `Nc1nc2c(ncn2COC(CO)CO)c(=O)[nH]1` [GANCICLOVIR], the IC50 with Human betaherpesvirus 5 [1] is 5.9 µM; with Human betaherpesvirus 5 [3], 5.9 µM; with Human betaherpesvirus 5 [4], 3.9 µM; in the test on Human betaherpesvirus 5 [5] it was 3.9 µM. The CC50 in the test on Human betaherpesvirus 5 [2] was > 98 µM.
